The source of these data is US5079261A, “Use of lipoxin A4 and its derivatives as antagonists for slow-reacting substances of anaphylaxis” (Brigham and Women's Hospital, priority 1989, dated 1992).

Assay [1] concerns LTD4 receptor. Briefly: Inhibition of LTD4-induced IP3 formation in mesangial cells. The assay is classed as cell-based, rat. The procedure: Mesangial Cell Culture: Rat mesangial cells were isolated and cultured as described previously (Harris, R. C., et al., J. Clin. Invest. 82:1028-1039(1988). Briefly, kidneys were exicesed from two young Sprague-Dawly rats under sterile conditions, and the cortices removed, minced, and washed several times in Hank's Balanced Salt Solution, containing 10 mM HEPES pH 7.4, amphotericin (0.25 μg/ml), and gentamicin (50 μg/ml). The tissue was then passed through consecutive sterilized stainless mesh filters with pore sizes of 212 μm, 150 μm, and then onto the final mesh of 75 μm. The isolated glomeruli were harvested from the surface of the 75 μm. The isolated glomeruli were harvested from the surface of the 75 μm filter and washed twisce with the Hank's Media. The glomeruli were suspended in RPMI 1640 Medium with 15% Fetal Bovine Serum (Givco), penicillin (100 μ/ml) and streptomycin (100 μg/ml) (Gibco), plated into 100 mm cell culture petri dishes, and incubated at 37° C. in a humidified atmosphere of 95% air and […] 5% CO2. Mesangial cell colonies were subcultured in 60 mm culture dishes, and experiments were carried out in cells from passages 2 to 12. The criteria used to establish the identify of mesangial cells were as described previously (Harris, R. C., et al., J. Clin. Invest. 82:1028-1039 (1988)). Cells were routinely grown in RPMI-1640, supplemented with 20% fetal calf serum, penicillin 100 μ/ml, and streptomycin 100 μg/ml. […] All eicosanoids were stored under argon at -70° C. in methanol and their purity and quantity verified periodically by ultraviolet scanning and high pressure liquid chromatography (Serhan, C. N. et al., J. Biol. Chem. 261:16340 (1986)).
(§1) To label mesangial cells with [^3 H]-Inositol, cells grown to confluence in 60 mm culture dishes (10^6 cells/dish) were cultured in RPMI, supplemented with 10% dialyzed fetal calf serum and [^3 H]-inositol (1 μCi/ml) in a total incubation volume of 5 ml.
Reactions were terminated by the addition of cold 10% trichloroacetic acid (TCA), the supernatants subjected to ether extraction, and the aqueous phase titrated to neutral pH using 0.1 M Tris base. [^3 H]-IP1, [^3 H]-IP2, and [^3 H]-IP3 in the aqueous phase were separated and quantitated by anion exchange column chromatography, using the method of Berridge et al. (Berridge, M. J., Biochem. J. 220:345-360 (1984)). To ensure the reliability of the separation technique, the same methods for extraction and separation were applied to known amounts of [^3 H]-IP1, [^3 H]IP2, and [^3 H]-IP3 standards (New England Nuclear) mixed in a ratio of 3:2:1, respectively, and subjected to separation by HPLC. The latter was performed using established methodology described previously (Cunha-Melo, J. R., et al., J. Biol. Chem. 262:11455-11463 (1987)).

Assay [2] deals with T1, mesangial cell LTD4 receptor (Rattus norvegicus, UniProt Q924T8).
T1 sequence (Q924T8 1-339): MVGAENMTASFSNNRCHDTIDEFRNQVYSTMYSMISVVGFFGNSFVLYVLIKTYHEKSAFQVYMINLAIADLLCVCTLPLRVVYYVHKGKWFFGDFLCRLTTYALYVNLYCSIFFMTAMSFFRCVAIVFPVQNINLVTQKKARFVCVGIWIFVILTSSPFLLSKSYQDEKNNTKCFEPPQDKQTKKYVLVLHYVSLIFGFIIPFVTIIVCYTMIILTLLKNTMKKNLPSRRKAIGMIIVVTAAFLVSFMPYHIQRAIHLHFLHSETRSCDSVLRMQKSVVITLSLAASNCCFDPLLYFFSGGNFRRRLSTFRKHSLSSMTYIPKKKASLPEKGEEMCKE
More on the design: endogenous in cells; host or cells: primary glomerular mesangial cells of young Sprague-Dawley rats, passages 2 to 12. To be noted: other studies of the inventors; cited from earlier work.

Assay [3] concerns LTD4 receptor. Briefly: Inhibition of LXA4-induced IP3 formation in mesangial cells. The assay is classed as cell-based, rat. The procedure: Mesangial Cell Culture: Rat mesangial cells were isolated and cultured as described previously (Harris, R. C., et al., J. Clin. Invest. 82:1028-1039(1988). Briefly, kidneys were exicesed from two young Sprague-Dawly rats under sterile conditions, and the cortices removed, minced, and washed several times in Hank's Balanced Salt Solution, containing 10 mM HEPES pH 7.4, amphotericin (0.25 μg/ml), and gentamicin (50 μg/ml). The tissue was then passed through consecutive sterilized stainless mesh filters with pore sizes of 212 μm, 150 μm, and then onto the final mesh of 75 μm. The isolated glomeruli were harvested from the surface of the 75 μm. […] All eicosanoids were stored under argon at -70° C. in methanol and their purity and quantity verified periodically by ultraviolet scanning and high pressure liquid chromatography (Serhan, C. N. et al., J. Biol. Chem. 261:16340 (1986)). […]
Reactions were terminated by the addition of cold 10% trichloroacetic acid (TCA), the supernatants subjected to ether extraction, and the aqueous phase titrated to neutral pH using 0.1 M Tris base. [^3 H]-IP1, [^3 H]-IP2, and [^3 H]-IP3 in the aqueous phase were separated and quantitated by anion exchange column chromatography, using the method of Berridge et al. (Berridge, M. J., Biochem. J. 220:345-360 (1984)). […]

For assay [4], the system named is LTD4/ LTE4 receptors. To be noted: in vivo and in vitro; cited from earlier work.
In assay [5] the target is T1, mesangial cell LTD4 receptor. Conditions: even at a 1000-fold excess concentration.
Description: Mesangial Cell Culture: Rat mesangial cells were isolated and cultured as described previously (Harris, R. C., et al., J. Clin. Invest. 82:1028-1039(1988). Briefly, kidneys were exicesed from two young Sprague-Dawly rats under sterile conditions, and the cortices removed, minced, and washed several times in Hank's Balanced Salt Solution, containing 10 mM HEPES pH 7.4, amphotericin (0.25 μg/ml), and gentamicin (50 μg/ml). The tissue was then passed through consecutive sterilized stainless mesh filters with pore sizes of 212 μm, 150 μm, and then onto the final mesh of 75 μm. The isolated glomeruli were harvested from the surface of the 75 μm. The isolated glomeruli were harvested from the surface of the 75 μm filter and washed twisce with the Hank's Media. The glomeruli were suspended in RPMI 1640 Medium with 15% Fetal Bovine Serum (Givco), penicillin (100 μ/ml) and streptomycin (100 μg/ml) (Gibco), plated into 100 mm cell culture petri dishes, and incubated at 37° C. in a humidified atmosphere of 95% air and 5% air and 5% CO2. Mesangial cell colonies were subcultured in 60 mm culture dishes, and experiments were carried out in cells from passages 2 to 12. […] Cells were routinely grown in RPMI-1640, supplemented with 20% fetal calf serum, penicillin 100 μ/ml, and streptomycin 100 μg/ml.
Binding studies were routinely performed at 4° C. […] The cells were then dissolved with 1.0 ml of 1.0 N NaOH, neutralized with HCl, dissolved in 10 ml of Aquasol (New England Nuclear, Boston, MA), and the bound radioactivity was determined using a scintillation counter (Beckman Instruments). […] Cell density was determined by counting cells from replicate wells, using a Coulter Counter ZBi (Coulter Electronics, Inc., Hialeah, Fla.).
The test system of assay [6] is LTD4 receptor. Conditions: cited from earlier work.
For assay [7], the system named is rat mesangial cells. Briefly: IP3 formation ([3H]-inositol labeled mesangial cells) in response to LTD4 or LXA4. The format is cell-based. To be noted: Mesangial cell, read-out: increase in [3H]-IP3 counts over controls.
Description: (§2) Statistical: ANOVA with Bonferroni modification for multiple pre-planned comparisons was used, within each group and between groups, to compare the changes in various whole kidney and microcirculatory indices which occurred from one period to another. In phosphoinositide generation studies, increases in [^3 H]-IP3 CPMs in agonist-treated cells were compared to vehicle-treated controls using upaired students t-test. Differences were considered significant at a p value ≤0.05. All values are reported as means ± SEM.
The isolated glomeruli were harvested from the surface of the 75 μm filter and washed twisce with the Hank's Media. […] Mesangial cell colonies were subcultured in 60 mm culture dishes, and experiments were carried out in cells from passages 2 to 12.
as §1
Reactions were terminated by the addition of cold 10% trichloroacetic acid (TCA), the supernatants subjected to ether extraction, and the aqueous phase titrated to neutral pH using 0.1 M Tris base. […] To ensure the reliability of the separation technique, the same methods for extraction and separation were applied to known amounts of [^3 H]-IP1, [^3 H]IP2, and [^3 H]-IP3 standards (New England Nuclear) mixed in a ratio of 3:2:1, respectively, and subjected to separation by HPLC.

The test system of assay [8] is mesangial cells. To be noted: cited from earlier work.
For assay [9] the following is noted: intra-renal arterial LTD4 1 μg/kg/min; cited from earlier work.
In assay [10] the test system is HL-60 myeloid cells. To be noted: DMSO-differentiated HL-60 cells; cited from earlier work.
In assay [11] the test system is renal arterioles. Conditions: rat, in vivo; cited from earlier work.
The nature of assay [12]: Renal function in vivo in anesthetized rats (AP, Hct, RPF, GFR) during intrarenal arterial infusion. More on the design: species or system male Munich-Wistar rats. Conditions: for Mean percent fall in RPF / Mean percent fall in GFR: without LXA4.
Description: as §2
Inulin and para-aminohippurate (PAH) clearances Were used to measure GFR and effective RPF. A needle was placed at the take-off of the left renal artery through which a maintenance infusion of 0.9% NaCl at a rate of 0.05 ml/min was initiated. […] Two experimental groups
Group I (n=14). First period: Clearances were performed during vehicle infusion.
Group II (n=12). First period: Clearances were performed during vehicle infusion.

[13] abbreviates: 100-fold concentrations of SKF 104353.
Setting [14] is: Group I, period 2, A: LTD4 0.5 μg/kg/min, n=4.
The mark [15] stands for this setting: Group I, period 2, B: LTD4 7 μg/kg/min, n=3.
Where [16] appears, read: Group I, period 2, C: LTD4 14 μg/kg/min, n=3.
Setting [17] is: Group I, period 2, D: LTD4 20 μg/kg/min, n=4.
The mark [18] stands for this setting: LTD4 7.0 μg/kg/min, p<0.05 vs baseline.
The mark [19] stands for this setting: LTD4 14.0 μg/kg/min, p<0.05 vs baseline.
[20] abbreviates: LTD4 20.0 μg/kg/min, p<0.05 vs baseline.

Entries after “also recorded” stand apart in the source; their conditions may differ.

On to `O=C(O)CCS[C@H](c1ccccc1CCCCCCCCc1ccccc1)[C@@H](O)C(=O)O` [SKF 104353], for which, in assay [1] (setting [13]), the “Inhibition of IP3 formation in response to LTD4 (FIG. 2)” value is “complete abolition”. For the same compound, the “Inhibition of LTD4-induced stimulation of [3H]-IP3 formation” value in [1] (100-fold excess over ligand, LTD4 10 and 50 nM (n=3 each)) is “total abrogation”. For the same compound, the “Inhibition of [3H]-LTD4 binding to its mesangial cell binding site” value in assay [2] was “inhibit [^3 H]-LTD4 binding”. The “Inhibition of IP3 formation in response to LXA4 (FIG. 2)” value in assay [3] (setting [13]) is listed as “complete abolition”. Further, the “Inhibition of LXA4-induced IP3 formation” value in assay [3] (SKF 104353 100 nM (n=3)) is “abrogated; also recorded: total abrogation”. Besides, the Agonist activity result in assay [4] was “devoid of agonist activity”.
Regarding `CCCCC[C@H](O)/C=C/C=C\C=C\C=C\[C@H](O)[C@@H](O)CCCC(=O)O` [6S-LXA4, 5S,6S,15S,trihydroxy-7,9,13-trans-11-cis-eicosatetraenoic acid, reference compound], in [5], the “Competition for [3H]-LTD4 at excess concentration” value was “filed to compete for [^3 H]-LTD4”.
Regarding `CCCc1c(OCC(O)COc2ccc3c(=O)cc(C(=O)O)oc3c2CCC)ccc(C(C)=O)c1O` (stereo not drawn) [FPL-55712], in assay [6], the Duration of action result is “short-acting”.
As for `CCCCC/C=C\C\C=C/C=C/C=C/[C@@H](SC[C@H](N)C(=O)NCC(=O)O)[C@@H](O)CCCC(=O)O` [LTD4, reference compound], the activation at 0.01 µM in assay [7] was determined as 146 ± 20%. Also, in assay [7], the activation at 0.05 µM was found to be 106 ± 13%. Further, the “Contraction of mesangial cells in culture” value in [8] is recorded as “contracts mesangial cells in culture”. Also, the Systemic hemodynamic alterations entry in [9] is “elevation in systemic arterial pressure and a progressive loss of plasma volume”. Besides, the “Intracellular Ca2+ concentrations” value in assay [10] is given as “increase intracellular Ca^2+ concentrations”. The “Kf and GFR in vivo” value in assay [11] was “markedly reduces”. Further, the “GFR and RPF change (in words)” value in [12] (Group I, LTD4 0.5-20.0 μg/kg/min) is “dose-dependent reductions”. For the same compound, the AP in [12] (setting [14]) was 127 ± 9 mmHg; in assay [12] (setting [15]), 124 ± 6 mmHg; in assay [12] (setting [16]) it was 148 ± 5 mmHg; in [12] (setting [17]) it was 128 ± 4 mmHg. Besides, the GFR in assay [12] (setting [14]) stood at 0.81 ± 0.11 mL/min; in assay [12] (setting [15]), 0.84 ± 0.15 mL/min; in assay [12] (setting [16]), 0.32 ± 0.10 mL/min; in assay [12] (setting [17]), 0.34 ± 0.80 mL/min. The Hct in assay [12] (setting [14]) is listed as 48.3 ± 1.2 Vol./dl; in assay [12] (setting [15]), 53.0 ± 1.5 Vol./dl; in assay [12] (setting [16]), 59.2 ± 2.2 Vol./dl; in [12] (setting [17]) it was 55.0 ± 1.8 Vol./dl. The RPF in [12] (setting [14]) came to 3.41 ± 0.50 mL/min; in [12] (setting [15]) it was 2.76 ± 0.59 mL/min; in assay [12] (setting [16]), 1.51 ± 0.44 mL/min; in assay [12] (setting [17]), 1.20 ± 0.15 mL/min. The “Mean percent fall in RPF” value is reported as 24% in [12] (LTD4 0.5 μg/kg/min), 40% in assay [12] (setting [18]), 65% in assay [12] (setting [19]) and 70% in [12] (setting [20]). The “Mean percent fall in GFR” value in assay [12] (LTD4 0.5 μg/kg/min, p<0.05 vs baseline) is 27%; in assay [12] (setting [18]), 25%; in assay [12] (setting [19]) it was 70%; in assay [12] (setting [20]), 73%.
